Source: PubChem BioAssay AID2124 (Sanford-Burnham Center for Chemical Genomics, 2009)
Inconclusive results are not listed. Activity calls are given as the source filed them. How the calls were made is not given here; tested in MIN6 cells.

Assay: GFP-wavelength compound autofluorescence in cells – imaging, high-content imaging, artefact control, dose response (AID 2124);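 further: cells exposed to compound for 48 hours before fixing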
Conditions: cells, GFP-channel autofluorescence, high-content imaging, at 10 µM; for z-score: stronger effect = higher value

Compound	z-score	cell count
CC(=Nc1ccc(C)cc1C)c1sc2ccccc2c1O	-0.3 (inactive)	2760 cells
CCN(CC)c1ccc(/C=N/c2sc3c(c2C#N)C2CCN3CC2)c(O)c1	1.45	2490 cells
CCN(CC)c1ccc(/C=C2\SC(=O)N(C(C)C)C2=O)o1	0.48	941 cells
COc1ccc(-c2ccc3c(N)c(C(=O)c4cccc(OC)c4)sc3n2)cc1	-0.24 (inactive)	2850 cells
COc1ccc(C2/C=C\CN(S(=O)(=O)c3cccc4cccnc34)CC(=O)N2Cc2ccc(F)cc2)cc1 (configuration not stated)	-0.39 (inactive)	3760 cells
O=[N+]([O-])c1ccc(N/N=C/c2sc(N3CCOCC3)nc2-c2ccccc2)c(S(=O)(=O)Nc2ccccc2Cl)c1	0.01	144 cells
COc1ccccc1CC(=O)NC1CC(C)(C)NC(C)(C)C1	-0.33 (inactive)	2940 cells
O=C(C1=C[C@H](C2CC2)C[C@H](OCCCCO)O1)N1CCN(Cc2ccccc2)CC1	-0.38 (inactive)	2880 cells
O=C1S/C(=C/c2ccc(N3CCOCC3)o2)C(=O)N1Cc1c(F)cccc1Cl	1.3	3280 cells
CC(C)NC(=O)N1CCN(c2ccncc2S(=O)(=O)N2CCOCC2)CC1	-0.39 (inactive)	2900 cells
O=Cc1sc(Nc2ccccc2)nc1Cl	-0.31 (inactive)	3150 cells
COc1cc2c3nnc(-c4ccc(F)cc4)c-3cn(Cc3ccc(F)cc3)c2cc1OC	2.53	274 cells
Nc1cc2nc3ccccc3nc2cc1N	-0.37 (inactive)	1390 cells
CCOc1ccc2[nH]c(=O)c(CN(CCc3ccccc3)C(=O)N3CCOCC3)cc2c1	-0.26 (inactive)	3100 cells
CC(/C=N/NC(=O)c1ccncc1)=C\c1ccc(C(C)C)cc1	-0.33 (inactive)	2700 cells
CCc1cc2c(CN3CCN(CCO)CC3)cc(=O)oc2cc1O	-0.38 (inactive)	3140 cells

Compound	z-score	cell count
O=c1c(N2CCOCC2)c(N2CCOCC2)c1=O	-0.39 (inactive)	3130 cells
CCOc1ccc(NC(=O)C2CCC(C)(C(=O)O)C2(C)C)cc1 (configuration not stated)	-0.39 (inactive)	3170 cells
COc1nc(OC)nc(N2CCC(C(=O)NCc3cccs3)CC2)n1	-0.33 (inactive)	2940 cells
COCCCNc1c2c3c(cccc3[nH]c1=O)C(=O)c1ccccc1-2	1.79	2800 cells
N#CCc1nc(CSc2nc3ccccc3s2)cs1	-0.32 (inactive)	2980 cells
N#CC1CC(c2ccc([N+](=O)[O-])cc2)=NN1c1ccc([N+](=O)[O-])cc1 (configuration not stated)	-0.25 (inactive)	3490 cells
O=C(CSc1ccc(-c2ccccc2)nn1)NCC1CCCO1 (configuration not stated)	-0.38 (inactive)	2970 cells
CCOC(=O)c1ccc(NC(=O)COc2ccc(S(=O)(=O)NC(C)CC)cc2)cc1 (configuration not stated)	-0.33 (inactive)	3160 cells
CC(C)NC(=O)NC(=O)COC(=O)c1cccc(S(=O)(=O)N2CCCCC2)c1	-0.39 (inactive)	3040 cells
CN1CCNC(=O)C1CC(=O)NCCC1=CCCCC1 (configuration not stated)	-0.38 (inactive)	3160 cells
COc1ccc(OCCn2cc(/C(N)=N/O)c3ccccc32)cc1	-0.33 (inactive)	2930 cells
CCCCn1c(=O)[nH]c2nc3cc(N)ccc3nc2c1=O	-0.32 (inactive)	3540 cells
Cc1ccc(C2(C(F)(F)F)N=C3Sc4cc(C)ccc4N3C(=O)N2)cc1 (configuration not stated)	-0.39 (inactive)	2940 cells
O=C1N/C(=N/Nc2ccccc2)S/C1=C\c1ccccc1	-0.26 (inactive)	3090 cells
Cc1cc(C)c(C(=O)O)c(CC(C)(C)C(=O)O)c1	-0.33 (inactive)	3280 cells
